# Assays:
# [1] = molecular target: T1, Adenosine receptor A2b (Homo sapiens, UniProt P29275); assay: Displacement of [3H]DPCPX from human A2B adenosine receptor expressed in HEK293 cell membranes after 60 mins by radioligand displacement assay
# T1 sequence (P29275 whole entry): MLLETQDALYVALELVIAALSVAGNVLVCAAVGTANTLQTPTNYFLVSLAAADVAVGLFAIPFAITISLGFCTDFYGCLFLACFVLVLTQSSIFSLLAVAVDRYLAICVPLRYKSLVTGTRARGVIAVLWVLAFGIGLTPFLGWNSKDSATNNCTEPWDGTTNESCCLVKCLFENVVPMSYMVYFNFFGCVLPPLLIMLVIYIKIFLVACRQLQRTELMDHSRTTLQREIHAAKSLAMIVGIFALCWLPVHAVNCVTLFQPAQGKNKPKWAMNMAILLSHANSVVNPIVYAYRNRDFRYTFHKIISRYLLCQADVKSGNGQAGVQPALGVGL
# [2] = species on record: Homo sapiens; assay: Selectivity index, ratio of IC50 for human A2A adenosine receptor expressed in HEK293 cell membranes to IC50 for human A2B adenosine receptor expressed in HEK293 cell membranes; format: cell-based
# [3] = species on record: Homo sapiens; assay: Selectivity index, ratio of IC50 for human A1 adenosine receptor expressed in CHO cell membranes to IC50 for human A2B adenosine receptor expressed in HEK293 cell membranes; format: cell-based
# [4] = Intrinsic clearance in rat hepatocytes by MS/MS analysis; format: ADME, cell-based, Hepatocyte; details: read-out: CLH (converted)
# [5] = species on record: Homo sapiens; assay: Selectivity index, ratio of IC50 for human A3 adenosine receptor expressed in HEK293 cell membranes to IC50 for human A2B adenosine receptor expressed in HEK293 cell membranes; format: cell-based
IC50 [1],predicted hepatic clearance [4],Compound,Ratio IC50 [2],Ratio IC50 [3],Ratio IC50 [5]
97 nM,60 mL/min/kg,CCN(CC)C(=O)c1sc2c(c1C)c(=O)n(CCOC)c(=O)n2CCC(F)(F)F,0.83,22,68
1300 nM,46.7 mL/min/kg,Cc1csc2c1c(=O)n(CCc1ccccc1)c(=O)n2Cc1cnc[nH]1,8,3,5
55 nM,66.7 mL/min/kg,Cc1csc2c1c(=O)n(CCc1cccnc1)c(=O)n2CCC(F)(F)F,21,40,120
2100 nM,55 mL/min/kg,COCCn1c(=O)n(CCc2ccccc2)c(=O)c2c(C)c(C(=O)O)sc21,5,5,–
56 nM,66.7 mL/min/kg,Cc1csc2c1c(=O)n(CCc1ccccc1)c(=O)n2CCC(F)(F)F,81,25,120
280 nM,61.7 mL/min/kg,COCCn1c(=O)n(CCc2cccnc2)c(=O)c2c(C)csc21,29,39,23
440 nM,66.7 mL/min/kg,COCCn1c(=O)n(CC(F)(F)c2ccccc2)c(=O)c2c(C)csc21,25,9,–
790 nM,–,COCCn1c(=O)n(CCc2ccccc2)c(=O)c2c(C)c(C(=O)C3CC3)sc21,1,0.57,8
390 nM,–,COCCn1c(=O)n(CCc2ccccc2)c(=O)c2c(C)c(C(=O)N(C)OC)sc21,4,9,17
480 nM,58.3 mL/min/kg,Cc1csc2[nH]c(=O)n(CCc3ccccc3)c(=O)c12,–,6,14
430 nM,65 mL/min/kg,COCCn1c(=O)n(CCc2ccccc2)c(=O)c2c(C)c(C(N)=O)sc21,18,8,16
3400 nM,56.7 mL/min/kg,Cc1[nH]cnc1Cn1c(=O)n(CCc2ccccc2)c(=O)c2c(C)csc21,3,3,2
> 10000 nM,–,COCCn1c(=O)n(Cc2ccccc2)c(=O)c2c(C)csc21,1,1,1
73 nM,68.3 mL/min/kg,Cc1csc2c1c(=O)n(CCc1ccccc1F)c(=O)n2CCC(F)(F)F,86,36,91
640 nM,–,CCn1c(=O)c2c(C)csc2n(CCOC)c1=O,11,6,10
1100 nM,–,Cc1csc2c1c(=O)n(CCc1ccccc1)c(=O)n2Cc1nc2cc(S(N)(=O)=O)ccc2o1,2,0.83,6
300 nM,66.7 mL/min/kg,COCCn1c(=O)n(CCc2ccccc2)c(=O)c2c(C)csc21,37,9,22
14 nM,68.3 mL/min/kg,COCCn1c(=O)n(CCc2ccccc2)c(=O)c2c(C)c(C(O)C3CC3)sc21 (stereo not given),11,10,480
150 nM,–,COCCn1c(=O)n(CCc2ccccc2)c(=O)c2c(C)c(CO)sc21,40,11,43
150 nM,66.7 mL/min/kg,COCCn1c(=O)n(CCc2ccccc2)c(=O)c2c(C)c(C(C)(O)C3CC3)sc21 (stereo not given),6,2,45

# Further lines, the molecule ahead of its results:
Compound,IC50 [1],predicted hepatic clearance [4],Ratio IC50 [2],Ratio IC50 [3],Ratio IC50 [5]
CCN(CC)C(=O)c1sc2c(c1C)c(=O)n(CCc1ccccc1)c(=O)n2CCOC,42 nM,66.7 mL/min/kg,3,23,160
COCCn1c(=O)n(CCc2ccccc2)c(=O)c2c(C)c(Cc3nc[nH]c3C)sc21,2.4 nM,66.7 mL/min/kg,180,93,2800
CCN(CC(C)(C)O)C(=O)c1sc2c(c1C)c(=O)n(CC)c(=O)n2CCC(F)(F)F,39 nM,35 mL/min/kg,19,11,170
CCn1c(=O)c2c(C)c(C(=O)N3CC(O)C3)sc2n(CCC(F)(F)F)c1=O,200 nM,6.83 to 10 mL/min/kg,7,8,32
CCN(CCO)C(=O)c1sc2c(c1C)c(=O)n(CC)c(=O)n2CCC(F)(F)F,50 nM,40 mL/min/kg,21,13,130
COCCn1c(=O)[nH]c(=O)c2c(C)csc21,> 10000 nM,31.7 mL/min/kg,1,1,0.61 to 1
COCCn1c(=O)n(CCc2ccccc2)c(=O)c2c(C)c(COC3CCCC3)sc21,250 nM,–,7,4,27
COCCn1c(=O)n(CCc2ccccc2)c(=O)c2c(C)c(C(=O)N3CC(O)C3)sc21,200 nM,61.7 mL/min/kg,–,–,–
COCCn1c(=O)n(CC(C)(C)C)c(=O)c2c(C)csc21,1600 nM,–,7,7,4
COCCn1c(=O)n(CCc2ccccc2)c(=O)c2c(C)c(Cn3ccnc3)sc21,12 nM,58.3 mL/min/kg,120,33,530
COCCn1c(=O)n(CCc2ccccc2)c(=O)c2c(C)c(C(O)c3ccccc3)sc21 (stereo not given),30 nM,68.3 mL/min/kg,21,1,230
CCN(CC)C(=O)c1sc2c(c1N)c(=O)n(C)c(=O)n2C,> 10000 nM,53.3 mL/min/kg,0.73,0.62,0.61
CCn1c(=O)c2c3c(sc2n(CCOC)c1=O)CCCC3,390 nM,–,3,5,17
COCCn1c(=O)n(CCc2ccccc2)c(=O)c2c(C)c(C(C)(O)c3cncn3C)sc21 (stereo not given),1200 nM,–,3,2,6
COCCn1c(=O)n(CCc2ccccc2)c(=O)c2c(C)c(CN3CCCC3)sc21,200 nM,61.7 mL/min/kg,–,–,–
COCCn1c(=O)n(CCc2ccccc2)c(=O)c2c(C)c(Cc3c[nH]c(C)n3)sc21,8.8 nM,61.7 mL/min/kg,510,110,750
CCn1c(=O)c2c3c(sc2n(CCOC)c1=O)CCC3,220 nM,–,11,18,30

# From ChEMBL document CHEMBL4422615, “Novel non-xanthine antagonist of the A2B adenosine receptor: From HTS hit to lead structure” (Eur J Med Chem, 2019)
